From patent US8211922B2, “1-methylnicotinamide derivatives and formulations for treatment of lipoprotein abnormalities” (Cortria Corporation, priority 2005, dated 2012)

Tests used:
[1] = system: PGI2; test: PGI2 release
[2] = Toxicity and tolerability
[3] = system: dyslipidemic patients; test: Anti-atherogenic effect of MNA after a single administration, plasma lipids; assay type: in vivo, human; details: for HDL % / TG % / TG/HDL % / Total Cholesterol %: change vs time 0; for TG: person
Method: The anti-atherogenic effect of NINA after single administration was also investigated in dyslipidemic patients. The patient was treated with 100 mg MNA. The plasma levels of TC, TG, and HDL were measured at baseline and after 1 and 3 hours. The level of LDL was not measured due to high TG level. […] The increase of the HDL (24.8 vs. 29.0 mg/dl) was observed after the administration. The significant reduction of TG/HDL ratio (24.0 vs. 16.5) was observed.

[4] = Chemical stability; assay type: physicochemical
[5] = system: rats fed a hypertriglyceridemic diet; test: Rat model of hypertriglyceridemia (high-fructose diet), plasma triglyceride; assay type: in vivo; details: Wistar rats, AIN93 diet with 60% fructose 8 weeks; 100 mg/kg MNA in drinking water for the last 4 weeks; FIG. 1
Method: Rats fed a high-fructose diet develop hypertriglyceridemia, insulin resistance and a mild degree of hypertension abnormalities that mimic metabolic syndrome in humans (Boehm and Claudi-Boehm, Scand J Clin Lab Invest Suppl. 2005; 240:3-13). […] One group was fed a control diet (basal AIN93) for 8 weeks, the second was fed an AIN93 diet supplemented with 60% fructose for 8 weeks, and the third was fed an AIN93 diet supplemented with 60% fructose that was additionally treated with 100 mg/kg of MNA for the last 4 weeks (after hypertriglicerydemia fully develops) and was given to drinking water. At the end of experiments rats were anesthetized, and blood was withdrawn and anticoagulated. Triglyceride level in plasma was measured by standard spectophotometric technique using commercially available kits.

[6] = system: apoE/LDLR−/− mice; test: Mice model of atheroprotection, quantitation of atherosclerosis; assay type: in vivo; details: female apoE/LDLR−/− mice, 100 mg/kg MNA for 2 months, vs placebo; FIG. 2
Method: Female apoE/LDLR^−/− mice on C57BL/6J background were used for experiments. The experiments were conducted according to the Guidelines for Animal Care and Treatment of the European Communities and were approved by the Local Animal Ethics Committee. apoE/LDLR^−/− mice were fed with standard chow. MNA was given for 2 months (100 mg/kg, 4-6 months old apoE/LDLR^−/− mice) and effects of MNA compared to placebo-treated mice. In each group of mice (control and MNA) n=5.
Development of atherosclerosis was determined by cross-section (aortic roots), en-face (whole aorta) analysis and quantified semiautomatically, as described before (Jawien et al. Eur J Clin Invest; 2006; 36:141-6). Briefly, the heart and whole aorta were washed by phosphate buffered saline, then the heart and the whole aorta were removed. The heart and ascending aorta were embedded in OCT compound and snap-frozen. Ten micrometer-thick cryosections were cut and after fixation in 4% paraformaldehyde were stained with Meyer's hematoxylin and oil red-O and lesion area was measured semiautomatically in each slide using LSM Image Browser software.

1-methylnicotinamide chloride [MNA]
PGI2 release [1]: releases PGI2 | Tolerability [2]: very well tolerated | Toxicity [2]: non-toxic | TG/HDL ratio ([3]; after the administration of 100 mg MNA (base-line 24.0)): 16.5 | HDL ([3]; after the administration of 100 mg MNA (base-line 24.8)): 29.0 mg/dL | TG level ([3]; after the administration of 100 mg MNA (base-line 596)): 479 mg/dL | HDL % ([3]; single 100 mg MNA, 1 h): 2.82% | TG % ([3]; single 100 mg MNA, 1 h): −5.03% | TG/HDL % ([3]; single 100 mg MNA, 1 h): −7.64% | Total Cholesterol % ([3]; single 100 mg MNA, 1 h): 1.08% | HDL % ([3]; single 100 mg MNA, 3 h): 16.94% | TG % ([3]; single 100 mg MNA, 3 h): -19.63% | TG/HDL % ([3]; single 100 mg MNA, 3 h): −31.27% | Total Cholesterol % ([3]; single 100 mg MNA, 3 h): 4.84% | TG ([3]; single 100 mg MNA, 1 h): 566 mg/dL | TG ([3]; single 100 mg MNA, 3 h): 479 mg/dL | HDL ([3]; single 100 mg MNA, 1 h): 25.5 mg/dL | TG/HDL ([3]; single 100 mg MNA, 1 h): 22.20 | Total Cholesterol ([3]; single 100 mg MNA, 1 h): 188 mg/dL | HDL ([3]; single 100 mg MNA, 3 h): 29.0 mg/dL | TG/HDL ([3]; single 100 mg MNA, 3 h): 16.52 | Total Cholesterol ([3]; single 100 mg MNA, 3 h): 195 mg/dL | Chemical stability [4]: chemically very stable | Triglyceride level in plasma [5]: lowers triglyceride levels | Atherosclerosis progression (lesion area) [6]: slows atherosclerosis progression
